Experimental data taken from publication PMC10351538 (Journal of Enzyme Inhibition and Medicinal Chemistry, 2023).

Biological target: triosephosphate isomerase (TcTIM WT) (Trypanosoma cruzi, UniProt P52270)
Test: coupled enzyme assay
Format: biochemical
Details: read-out: approximately 95% inactivation

Chain of triosephosphate isomerase (TcTIM WT) (P52270 whole entry): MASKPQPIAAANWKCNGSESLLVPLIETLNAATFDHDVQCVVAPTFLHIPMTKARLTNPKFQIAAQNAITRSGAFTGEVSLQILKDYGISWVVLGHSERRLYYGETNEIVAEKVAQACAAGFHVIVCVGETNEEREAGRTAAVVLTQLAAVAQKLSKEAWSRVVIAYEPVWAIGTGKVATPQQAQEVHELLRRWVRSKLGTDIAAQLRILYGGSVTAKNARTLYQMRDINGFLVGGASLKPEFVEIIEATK

- IC95: ~75 µM
SMILES: COCCCOc1ccnc(C[S+]([O-])c2nc3ccccc3[nH]2)c1C (stereo not shown) [Rbz, rabeprazole]
